Experimental data: US20040092568A1, “Methods for the treatment, prevention and management of macular degeneration” (priority 2002, published 2004)

Tests used:
[1] = system: patients with macular degeneration; experiment: Macular degeneration clinical study (adjuvant to verteporfin photodynamic therapy); format: in vivo; conditions: about 300 mg/day for 20 weeks as adjuvant to verteporfin photodynamic therapy
Description: Forty patients with macular degeneration are divided into two groups. The first group receives conventional treatment for closing the leaking choroidal vessels (characteristic of this disease) by photodynamic therapy with verteporfin (see for example Ophthalmol. 117:1329-1345 (1999). The second group receives the same conventional therapy with verteporfin with 1-(5-(1H-1,2,4-triazol-5-yl)(1H-indazol-3-yl))-3-(2-piperidylethoxy)benzene at about 300 mg/day as an adjuvant for 20 weeks.
The first group, without 1-(5-(1H 1,2,4-triazol-5-yl)( 1 H-indazol-3-yl))-3-(2-piperidylethoxy)benzene, however will experience progressive reperfusion of the ablated vessels several weeks after treatment. Progressive visual loss follows which requires the photodynamic therapy to be repeated.

[2] = system: rat ventral mesencephalan neurons; experiment: [3H]Dopamine cell culture assay (6-OHDA neurotoxicity); format: cell-based; conditions: 6-OHDA 30 μM, uptake 22 hours later
Description: Cultures of dopaminergic neurons were prepared according to a modification of the procedure described by Raymon and Leslie (J. Neurochem. 62:1015-1024, 1994). Time-mated pregnant rats were sacrificed on embyronic day 14-15 (crown rump length 11-12 mm) and the embryos removed by cesarean section. The ventral mesencephalon, containing the dopaminergic neurons, was dissected from each embryo. Tissue pieces from approximately 48 embryos were pooled and dissociated both enzymatically and mechanically. An aliquot from the resulting cell suspension was counted and the cells were plated in high glucose DMEM/F12 culture medium with 10% fetal bovine serum at a density of 1×10^5 cells/well of a Biocoat poly-D-lysine-coated 96-well plate. The day following plating was considered 1 day in vitro (DIV). Cells were maintained in a stable environment at 37° C., 95% humidity, and 5% CO2. A partial medium change was performed at 3 DIV. […]
[^3H]Dopamine uptake is used as a measure of the health and integrity of dopaminergic neurons in culture (Prochiantz et al., PNAS 76: 5387-5391, 1979). […] Briefly, cells treated with 6-OHDA in the presence and absence of 5-amino-anthra(9, 1-cd)isothiazol-6-one were assessed in the uptake assay 22 hrs after exposure to 6-OHDA. […] Radioactivity was removed and the cultures were washed 3x with ice cold PBS. […]

[3] = Brain-blood plasma distribution in vivo; set-up: species or system Sprague-Dawley rats; conditions: rat, 10 mg/kg intravenously, 2 hr post-dose
Description: 5-Amino-anthra(9,1-cd)isothiazol-6-one was administered intravenously (10 mg/kg) into the veins of Sprague-Dawley rats. After 2 hr, blood samples were obtained from the animals and their vascular systems were perfused with approximately 100 mL of saline to rid their brains of blood. The brains were removed from the animals, weighed, and homogenized in a 50 mL conical tube containing 10 equivalents (w/v) of methanol/saline (1:1) using a Tissue Tearer (Fischer Scientific). The homogenized material was extracted by adding 600 μL of cold methanol to 250 μL of brain homogenate vortexed for 30 sec and subjected to centrifugation for 5 min. After centrifugation, 600 μL of the resulting supernatant was transferred to a clean tube and evaporated at room temperature under reduced pressure to provide a pellet. […] The brain homogenate analysis samples, plasma analysis samples, and standard analysis samples were analyzed and compared using HPLC by injecting 100 μL of a sample onto a 5 μm C-18 Luna column (4.6 mm×150 mm, commercially available from Phenomenex of Torrance, Calif.) and eluting at 1 mL/min with a linear gradient of 30% aqueous acetonitrile containing 0.1% trifluoroacetic acid to 90% aqueous acetonitrile containing 0.1% trifluoroacetic acid over 8 minutes and holding at 90% aqueous acetonitrile containing 0.1 % trifluoroacetic acid for 3 min. with absorbance detection at 450 nm. […]

[4] = Solubility in aqueous media; format: physicochemical

c1cc(OCCC2CCCCN2)cc(-c2n[nH]c3ccc(-c4ncn[nH]4)cc23)c1 (stereo not shown) [1-(5-(1H-1,2,4-triazol-5-yl)(1H-indazol-3-yl))-3-(2-piperidylethoxy)benzene]
effect on neovascular cascade / duration of photodynamic therapy effect [1]: neovascular cascade is sufficiently hindered

Nc1ccc2snc3c2c1C(=O)c1ccccc1-3 [5-amino-anthra(9,1-cd)isothiazol-6-one]
protection of dopaminergic neurons from 6-OHDA ([3H]dopamine uptake) [2]: protects rat ventral mesencephalan neurons from the toxic effects of 6-OHDA | brain-drug concentration [3]: approximately 65 nmole/g | solubility in aqueous media [4]: limited solubility
